Structures can show the parent of a compound that is named as a salt.
test system: BRCA-1 silenced HeLa cells (HeLa shBRCA1-GFP); assay: Proliferation assay in BRCA-1 silenced HeLa cells; format: cell-based; conditions: Homo sapiens; BRCA1 silenced HeLa cells, 168 hours; read-out: CC50 in the BRCA1 silenced HeLa cells
Summary of the method: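 Antiproliferative effect was read by Celltiter Blue fluorescence after 168 h of compound treatment at 37° C., 5% CO2. Cells were matched HeLa pairs, BRCA1-shRNA (>80% silenced, GFP) versus non-shRNA vector control, in DMEM with 10% FCS.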

SMILES | CC50 [nM]
Cc1c(Cc2ccc(F)c(C(=O)N3CC(=O)N(C4CCC(F)(F)C4)C(C)C3)c2)n[nH]c(=O)c1C (stereo not drawn) [Example 127, 6-(3-{[4-(3,3-Difluorocyclopentyl)-3-methyl-5-oxopiperazin-1-yl]carbonyl}-4-fluorobenzyl)-4,5-dimethylpyridazin-3(2H)-one trifluoroacetate] | < 50
Cc1c(Cc2ccc(F)c(C(=O)N3CC(=O)N(C4CCC(C)(C)CC4)C(C)C3)c2)n[nH]c(=O)c1C (stereo not drawn) [Example 128, 6-(3-{[4-(4,4-Dimethylcyclohexyl)-3-methyl-5-oxopiperazin-1-yl]carbonyl}-4-fluorobenzyl)-4,5-dimethylpyridazin-3(2H)-one trifluoroacetate] | < 50
Cc1c(Cc2ccc(F)c(C(=O)N3CC(=O)N(C4CCCOC4)C(C)C3)c2)n[nH]c(=O)c1C (stereo not drawn) [Example 129, 6-(4-Fluoro-3-{[3-methyl-5-oxo-4-(tetrahydro-2h-pyran-3-yl)piperazin-1-yl]carbonyl}benzyl)-4,5-dimethylpyridazin-3(2H)-one trifluoroacetate] | 50 to 500
Cc1c(Cc2ccc(F)c(C(=O)N3CC(=O)N(C4CCOC4)C(C)C3)c2)n[nH]c(=O)c1C (stereo not drawn) [Example 130, 6-(4-Fluoro-3-{[3-methyl-5-oxo-4-(tetrahydrofuran-3-yl)piperazin-1-yl]carbonyl}benzyl)-4,5-dimethylpyridazin-3(2H)-one trifluoroacetate] | 50 to 500
Cc1c(Cc2ccc(F)c(C(=O)N3CC(=O)N(C(c4ccccc4)C(F)F)C(C)C3)c2)n[nH]c(=O)c1C (stereo not drawn) [Example 131, 6-(3-{[4-(2,2-Difluoro-1-phenylethyl)-3-methyl-5-oxopiperazin-1-yl]carbonyl}-4-fluorobenzyl)-4,5-dimethylpyridazin-3(2H)-one trifluoroacetate] | < 50
Cc1c(Cc2ccc(F)c(C(=O)N3CC(=O)N(C4COc5ccccc5C4)C(C)C3)c2)n[nH]c(=O)c1C (stereo not drawn) [Example 132, 6-(3-{[4-(3,4-Dihydro-2H-chromen-3-yl)-3-methyl-5-oxopiperazin-1-yl]carbonyl}-4-fluorobenzyl)-4,5-dimethylpyridazin-3(2H)-one trifluoroacetate] | < 50
O=C(c1cc(Cc2cc(C(F)(F)F)c(=O)[nH]n2)ccc1F)N1CCN([C@H]2CCCOC2)C(=O)C1 [Example 153, 6-[4-fluoro-3-({3-oxo-4-[(3S)-tetrahydro-2H-pyran-3-yl]piperazin-1-yl}carbonyl)benzyl]-4-(trifluoromethyl)pyridazin-3(2H)-one] | 50 to 500
O=C(c1cc(Cc2cc(C(F)(F)F)c(=O)[nH]n2)ccc1F)N1CCN([C@@H]2CCCOC2)C(=O)C1 [Example 154, 6-[4-fluoro-3-({3-oxo-4-[(3R)-tetrahydro-2H-pyran-3-yl]piperazin-1-yl}carbonyl)benzyl]-4-(trifluoromethyl)pyridazin-3(2H)-one] | < 5000
CCN1C(=O)CN(C(=O)c2cc(Cc3n[nH]c(=O)c(C(F)(F)F)c3C)ccc2F)C[C@@H]1C [Example 155, 6-(3-{[(3S)-4-ethyl-3-methyl-5-oxopiperazin-1-yl]carbonyl}-4-fluorobenzyl)-5-methyl-4-(trifluoromethyl)pyridazin-3(2H)-one] | < 50
CCN1C(=O)CN(C(=O)c2cc(Cc3n[nH]c(=O)c(C(F)(F)F)c3C)ccc2F)C[C@H]1C [Example 156, 6-(3-{[(3R)-4-ethyl-3-methyl-5-oxopiperazin-1-yl]carbonyl}-4-fluorobenzyl)-5-methyl-4-(trifluoromethyl)pyridazin-3(2H)-one] | < 50
Cc1c(Cc2ccc(F)c(C(=O)N3CC(=O)N([C@@H]4CCOC4)[C@@H](C)C3)c2)n[nH]c(=O)c1C [Example 157, 6-[4-fluoro-3-({(3S)-3-methyl-5-oxo-4-[(3R)-tetrahydrofuran-3-yl]piperazin-1-yl}carbonyl)benzyl]-4,5-dimethylpyridazin-3(2H)-one] | 50 to 500
Cc1c(Cc2ccc(F)c(C(=O)N3CC(=O)N([C@@H]4CCOC4)[C@H](C)C3)c2)n[nH]c(=O)c1C [Example 158, 6-[4-fluoro-3-({(3R)-3-methyl-5-oxo-4-[(3R)-tetrahydrofuran-3-yl]piperazin-1-yl}carbonyl)benzyl]-4,5-dimethylpyridazin-3(2H)-one] | 50 to 500
CCc1cc(Cc2ccc(F)c(C(=O)N3CCN([C@H]4CCc5ccccc5C4)C(=O)C3)c2)n[nH]c1=O [Example 159, 4-ethyl-6-[4-fluoro-3-({3-oxo-4-[(2S)-1,2,3,4-tetrahydronaphthalen-2-yl]piperazin-1-yl}carbonyl)benzyl]pyridazin-3(2H)-one] | < 50
CCc1cc(Cc2ccc(F)c(C(=O)N3CCN([C@@H]4CCc5ccccc5C4)C(=O)C3)c2)n[nH]c1=O [Example 160, 4-ethyl-6-[4-fluoro-3-({3-oxo-4-[(2R)-1,2,3,4-tetrahydronaphthalen-2-yl]piperazin-1-yl}carbonyl)benzyl]pyridazin-3(2H)-one] | 50 to 500
CC[C@H](C)N1CCN(C(=O)c2cc(Cc3n[nH]c(=O)c(C)c3C)ccc2F)CC1=O [Example 161, 6-[4-Fluoro-3-({4-[(1S)-1-methylpropyl]-3-oxopiperazin-1-yl}carbonyl)benzyl]-4,5-dimethylpyridazin-3(2H)-one] | < 50
COCC(C)N1CCN(C(=O)c2cc(Cc3n[nH]c(=O)c(C)c3C)ccc2F)CC1=O (stereo not drawn) [Example 162, 6-(4-Fluoro-3-{[4-(2-methoxy-1-methylethyl)-3-oxopiperazin-1-yl]carbonyl}benzyl)-4,5-dimethylpyridazin-3(2H)-one] | < 50
Cc1c(Cc2ccc(F)c(C(=O)N3CC(=O)N(C4CCC4)C(C)C3)c2)n[nH]c(=O)c1C (stereo not drawn) [Example 163, 6-{3-[(4-Cyclobutyl-3-methyl-5-oxopiperazin-1-yl)carbonyl]-4-fluorobenzyl}-4,5-dimethylpyridazin-3(2H)-one] | < 50
CCC1CN(C(=O)c2cc(Cc3n[nH]c(=O)c(C)c3C)ccc2F)CC(=O)N1C1CCC1 (stereo not drawn) [Example 164, 6-{3-[(4-Cyclobutyl-3-ethyl-5-oxopiperazin-1-yl)carbonyl]-4-fluorobenzyl}-4,5-dimethylpyridazin-3(2H)-one] | 50 to 500
Cc1c(Cc2ccc(F)c(C(=O)N3CC(=O)N(c4cccc(Cl)c4)C(C)C3)c2)n[nH]c(=O)c1C (stereo not drawn) [Example 165, 6-(3-{[4-(3-Chlorophenyl)-3-methyl-5-oxopiperazin-1-yl]carbonyl}-4-fluorobenzyl)-4,5-dimethylpyridazin-3(2H)-one] | < 50
Cc1c(Cc2ccc(F)c(C(=O)N3CC(=O)N(c4ccc(C#N)cc4)[C@@H](C)C3)c2)n[nH]c(=O)c1C [Example 166, 4-((2S)-4-{5-[(4,5-Dimethyl-6-oxo-1,6-dihydropyridazin-3-yl)methyl]-2-fluorobenzoyl}-2-methyl-6-oxopiperazin-1-yl)benzonitrile] | < 50
CCC(CC)N1CCN(C(=O)c2cc(Cc3n[nH]c(=O)c(C)c3C)ccc2F)CC1=O [Example 167, 6-(3-{[4-(1-Ethylpropyl)-3-oxopiperazin-1-yl]carbonyl}-4-fluorobenzyl)-4,5-dimethylpyridazin-3(2H)-one] | < 50
CC[C@@H](C)N1CCN(C(=O)c2cc(Cc3n[nH]c(=O)c(C)c3C)ccc2F)CC1=O [Example 168, 6-[4-Fluoro-3-({4-[(1R)-1-methylpropyl]-3-oxopiperazin-1-yl}carbonyl)benzyl]-4,5-dimethylpyridazin-3(2H)-one] | < 50
COC[C@H](C)N1CCN(C(=O)c2cc(Cc3n[nH]c(=O)c(C)c3C)ccc2F)CC1=O [Example 169, 6-[4-Fluoro-3-({4-[(1S)-2-methoxy-1-methylethyl]-3-oxopiperazin-1-yl}carbonyl)benzyl]-4,5-dimethylpyridazin-3(2H)-one] | < 5000
Cc1c(Cc2ccc(F)c(C(=O)N3CCN(CC(C)(C)O)C(=O)C3)c2)n[nH]c(=O)c1C [Example 173, 6-(4-Fluoro-3-{[4-(2-hydroxy-2-methylpropyl)-3-oxopiperazin-1-yl]carbonyl}benzyl)-4,5-dimethylpyridazin-3(2H)-one] | < 5000
Cc1c(Cc2ccc(F)c(C(=O)N3CC(=O)N(c4ccc(C#N)c(F)c4)[C@@H](C)C3)c2)n[nH]c(=O)c1C [Example 174, 4-((2S)-4-{5-[(4,5-Dimethyl-6-oxo-1,6-dihydropyridazin-3-yl)methyl]-2-fluorobenzoyl}-2-methyl-6-oxopiperazin-1-yl)-2-fluorobenzonitrile] | < 50
Cc1c(Cc2ccc(F)c(C(=O)N3CC(=O)N(C4CCC4)[C@H](C)C3)c2)n[nH]c(=O)c1C [Example 175, 6-(3-{[(3R)-4-Cyclobutyl-3-methyl-5-oxopiperazin-1-yl]carbonyl}-4-fluorobenzyl)-4,5-dimethylpyridazin-3(2H)-one] | < 50
Cc1c(Cc2ccc(F)c(C(=O)N3CC(=O)N(c4cccc(Cl)c4)[C@@H](C)C3)c2)n[nH]c(=O)c1C [Example 177, 6-(3-{[(3S)-4-(3-Chlorophenyl)-3-methyl-5-oxopiperazin-1-yl]carbonyl}-4-fluorobenzyl)-4,5-dimethylpyridazin-3(2H)-one] | < 50
Cc1c(Cc2ccc(F)c(C(=O)N3CC(=O)N(c4cccc(Cl)c4)[C@H](C)C3)c2)n[nH]c(=O)c1C [Example 178, 6-(3-{[(3R)-4-(3-Chlorophenyl)-3-methyl-5-oxopiperazin-1-yl]carbonyl}-4-fluorobenzyl)-4,5-dimethylpyridazin-3(2H)-one] | < 50
COC[C@@H](C)N1CCN(C(=O)c2cc(Cc3n[nH]c(=O)c(C)c3C)ccc2F)CC1=O [Example 179, 6-[4-Fluoro-3-({4-[(1R)-2-methoxy-1-methylethyl]-3-oxopiperazin-1-yl}carbonyl)benzyl]-4,5-dimethylpyridazin-3(2H)-one] | < 5000
CC[C@@H]1CN(C(=O)c2cc(Cc3n[nH]c(=O)c(C)c3C)ccc2F)CC(=O)N1C1CCC1 [Example 180, 6-(3-{[(3R)-4-Cyclobutyl-3-ethyl-5-oxopiperazin-1-yl]carbonyl}-4-fluorobenzyl)-4,5-dimethylpyridazin-3(2H)-one] | < 5000
